# Where “and” joins values, the source holds several entries; their conditions need not be identical. Equal values may be shown once. Entries after “also recorded” stand apart in the source; their conditions may differ. Read-outs that look alike come from different tables or passages of the source.
# Tests used:
# [1] = parameters: method as in PMID 32601208; conditions: single agent and in combination with targeted and cytotoxic therapies; cited from earlier work
# [2] = Plasma pharmacokinetics (LC/MS-MS); format: in vivo, human; conditions: for half-life: SD, read-out: Plasma elimination half-life (t1/2) (converted)
# Experimental: Plasma pharmacokinetics were assessed for CB-103 via blood samples taken on days 1 (predose, 0.5, 1, 2, 4, 6, 8 hours postdose ± 5 minutes, and 12 hours postdose ± 15 minutes), 2 (24-hour post-day 1, predose), 3 (predose), 8 (predose, 0.5, 1, 2, 4, 6, and 8 hour postdose ± 5 minutes), 9 (24-hour post-day 8, predose), 15, and 22 (predose, and 1 hour postdose) in cycle 1. In cycle 2, on day 1 (predose, 0.5, 1, 2, 6, and, 8 hours postdose ± 5 minutes) and 15 (predose); in cycles 3–6 once at each visit (predose or postdose). For a twice daily dose schedule, pharmacokinetic timepoints were adjusted to evaluate concentration-versus-time curves after morning and evening doses on days 1 and 8.
# CB-103 concentrations were determined by validated high-performance LC/MS-MS method and analyzed descriptively using Phoenix WinNonlin v6.3 (Pharsight Corporation). Data at timepoints collected were used to generate a population pharmacokinetic model to estimate AUC and Cmax to associate with safety and efficacy.
# [3] = tested on: Notch target genes (HEY1, IL7R alpha, NOTCH1, 2 and 4); assay: Peripheral Notch target gene expression versus exposure (gene panel, in words); format: in vivo, human; conditions: patients with ACC on twice daily dosing (n = 13); up to 1,000 mg (500 mg twice daily)
# From the text: Archival tumor tissue (not older than 6 months prior to screening) or fresh tumor biopsy was required to characterize Notch alteration status by targeted genomic sequencing and/or NICD1 expression (via IHC) among the confirmatory cohort at baseline. Repeat biopsy on cycle 2 day 15 and at disease progression was optional. Serial whole blood samples (and/or bone marrow samples and saliva among patients with T-ALL/T-LBL) were obtained on day 1 of cycles 1–6 to evaluate the dynamics of Notch gene expression. Peripheral blood was collected with PaxGene tubes and frozen at −20°C until processing. RNA was extracted (Qiagen RNeasy Micro kit) from peripheral whole blood and analyzed by Nanostring with percent change in expression levels reported with respect to baseline normalized values.
# Percent change (%) in peripheral blood cell Notch target gene expression was monitored among a subset of patients with ACC receiving twice daily dosing (n = 13).
structure (smiles),measurement,setting,value
CC(C)(C)c1ccc(Oc2ccc(N)cn2)cc1 [CB-103],Anticancer activity,[1],potent anticancer activity
same,AUC,"[2]; human, plasma, oral, 13 mg, Cohort 1 (13 mg), Cycle 1, Day 1, read-out: Mean AUC24",174 ng·h/mL
same,Cmax,"[2]; human, plasma, oral, 13 mg, Cohort 1 (13 mg), Cycle 1, Day 1, read-out: Mean Cmax",44.4 ng/mL
same,AUC,"[2]; human, plasma, oral, 13 mg, Cohort 1 (13 mg), Cycle 1, Day 8, read-out: Mean AUC24",433 ng·h/mL
same,Cmax,"[2]; human, plasma, oral, 13 mg, Cohort 1 (13 mg), Cycle 1, Day 8, read-out: Mean Cmax",58.7 ng/mL
same,AUC,"[2]; human, plasma, oral, 26 mg, Cohort 2 (26 mg), Cycle 1, Day 1, read-out: Mean AUC24",220 ng·h/mL
same,Cmax,"[2]; human, plasma, oral, 26 mg, Cohort 2 (26 mg), Cycle 1, Day 1, read-out: Mean Cmax",53.7 ng/mL
same,AUC,"[2]; human, plasma, oral, 52 mg, Cohort 3 (52 mg), Cycle 1, Day 1, read-out: Mean AUC24",496 ng·h/mL
same,Cmax,"[2]; human, plasma, oral, 52 mg, Cohort 3 (52 mg), Cycle 1, Day 1, read-out: Mean Cmax",98.5 ng/mL
same,AUC,"[2]; human, plasma, oral, 52 mg, Cohort 3 (52 mg), Cycle 1, Day 8, read-out: Mean AUC24",999 ng·h/mL
same,Cmax,"[2]; human, plasma, oral, 52 mg, Cohort 3 (52 mg), Cycle 1, Day 8, read-out: Mean Cmax",154 ng/mL
same,AUC,"[2]; human, plasma, oral, 104 mg, Cohort 4 (104 mg), Cycle 1, Day 1, read-out: Mean AUC24",1440 ng·h/mL
same,Cmax,"[2]; human, plasma, oral, 104 mg, Cohort 4 (104 mg), Cycle 1, Day 1, read-out: Mean Cmax",368 ng/mL
same,AUC,"[2]; human, plasma, oral, 104 mg, Cohort 4 (104 mg), Cycle 1, Day 8, read-out: Mean AUC24",3690 ng·h/mL
same,Cmax,"[2]; human, plasma, oral, 104 mg, Cohort 4 (104 mg), Cycle 1, Day 8, read-out: Mean Cmax",418 ng/mL
same,AUC,"[2]; human, plasma, oral, 148 mg, Cohort 5 (148 mg), Cycle 1, Day 1, read-out: Mean AUC24",1260 ng·h/mL
same,Cmax,"[2]; human, plasma, oral, 148 mg, Cohort 5 (148 mg), Cycle 1, Day 1, read-out: Mean Cmax",482 ng/mL
same,AUC,"[2]; human, plasma, oral, 148 mg, Cohort 5 (148 mg), Cycle 1, Day 8, read-out: Mean AUC24",2830 ng·h/mL
same,Cmax,"[2]; human, plasma, oral, 148 mg, Cohort 5 (148 mg), Cycle 1, Day 8, read-out: Mean Cmax",427 ng/mL
same,AUC,"[2]; human, plasma, oral, 217 mg, Cohort 6 (217 mg), Cycle 1, Day 1, read-out: Mean AUC24",2620 ng·h/mL
same,Cmax,"[2]; human, plasma, oral, 217 mg, Cohort 6 (217 mg), Cycle 1, Day 1, read-out: Mean Cmax",731 ng/mL
same,AUC,"[2]; human, plasma, oral, 217 mg, Cohort 6 (217 mg), Cycle 1, Day 8, read-out: Mean AUC24",4250 ng·h/mL
same,Cmax,"[2]; human, plasma, oral, 217 mg, Cohort 6 (217 mg), Cycle 1, Day 8, read-out: Mean Cmax",912 ng/mL
same,AUC,"[2]; human, plasma, oral, 250 mg, Cohort 9 (250 mg BID), Cycle 1, Day 1, read-out: Mean AUC24",6140 ng·h/mL
same,Cmax,"[2]; human, plasma, oral, 250 mg, Cohort 9 (250 mg BID), Cycle 1, Day 1, read-out: Mean Cmax",1010 ng/mL
same,AUC,"[2]; human, plasma, oral, 250 mg, Cohort 9 (250 mg BID), Cycle 1, Day 8, read-out: Mean AUC24",11700 ng·h/mL
same,Cmax,"[2]; human, plasma, oral, 250 mg, Cohort 9 (250 mg BID), Cycle 1, Day 8, read-out: Mean Cmax",1310 ng/mL
same,AUC,"[2]; human, plasma, oral, 300 mg, Cohort 10 (300 mg BID 5/2), Cycle 1, Day 1, read-out: Mean AUC24",10400 ng·h/mL
same,Cmax,"[2]; human, plasma, oral, 300 mg, Cohort 10 (300 mg BID 5/2), Cycle 1, Day 1, read-out: Mean Cmax",1630 ng/mL
same,AUC,"[2]; human, plasma, oral, 300 mg, Cohort 10 (300 mg BID 5/2), Cycle 1, Day 8, read-out: Mean AUC24",11300 ng·h/mL
same,Cmax,"[2]; human, plasma, oral, 300 mg, Cohort 10 (300 mg BID 5/2), Cycle 1, Day 8, read-out: Mean Cmax",1390 ng/mL
same,AUC,"[2]; human, plasma, oral, 348 mg, Cohort 7 (348 mg), Cycle 1, Day 1, read-out: Mean AUC24",3520 ng·h/mL
same,Cmax,"[2]; human, plasma, oral, 348 mg, Cohort 7 (348 mg), Cycle 1, Day 1, read-out: Mean Cmax",1150 ng/mL
same,AUC,"[2]; human, plasma, oral, 348 mg, Cohort 7 (348 mg), Cycle 1, Day 8, read-out: Mean AUC24",6880 ng·h/mL
same,Cmax,"[2]; human, plasma, oral, 348 mg, Cohort 7 (348 mg), Cycle 1, Day 8, read-out: Mean Cmax",874 ng/mL
same,AUC,"[2]; human, plasma, oral, 400 mg, Cohort 11 (400 mg BID 5/2), Cycle 1, Day 1, read-out: Mean AUC24",14900 ng·h/mL
same,Cmax,"[2]; human, plasma, oral, 400 mg, Cohort 11 (400 mg BID 5/2), Cycle 1, Day 1, read-out: Mean Cmax",1620 ng/mL
same,AUC,"[2]; human, plasma, oral, 400 mg, Cohort 11 (400 mg BID 5/2), Cycle 1, Day 8, read-out: Mean AUC24",14100 ng·h/mL
same,Cmax,"[2]; human, plasma, oral, 400 mg, Cohort 11 (400 mg BID 5/2), Cycle 1, Day 8, read-out: Mean Cmax",2400 ng/mL
same,AUC,"[2]; human, plasma, oral, 500 mg, Cohort 12 (500 mg BID 5/2), Cycle 1, Day 1, read-out: Mean AUC24",14200 ng·h/mL
same,Cmax,"[2]; human, plasma, oral, 500 mg, Cohort 12 (500 mg BID 5/2), Cycle 1, Day 1, read-out: Mean Cmax",2390 ng/mL
same,AUC,"[2]; human, plasma, oral, 500 mg, Cohort 12 (500 mg BID 5/2), Cycle 1, Day 8, read-out: Mean AUC24",18600 ng·h/mL
same,Cmax,"[2]; human, plasma, oral, 500 mg, Cohort 12 (500 mg BID 5/2), Cycle 1, Day 8, read-out: Mean Cmax",2760 ng/mL
same,Cmax,"[2]; human, plasma, oral, 500 mg, individual patients, total dose 500 mg, twice daily dosing, read-out: Cmax",1230 ng/mL
same,AUC,"[2]; human, plasma, oral, 522 mg, Cohort 8 (522 mg), Cycle 1, Day 1, read-out: Mean AUC24",5910 ng·h/mL
same,Cmax,"[2]; human, plasma, oral, 522 mg, Cohort 8 (522 mg), Cycle 1, Day 1, read-out: Mean Cmax",1230 ng/mL
same,AUC,"[2]; human, plasma, oral, 522 mg, Cohort 8 (522 mg), Cycle 1, Day 8, read-out: Mean AUC24",13500 ng·h/mL
same,Cmax,"[2]; human, plasma, oral, 522 mg, Cohort 8 (522 mg), Cycle 1, Day 8, read-out: Mean Cmax",1740 ng/mL
same,Cmax,"[2]; human, plasma, oral, 800 mg, individual patient, total dose 800 mg, twice daily dosing, read-out: Cmax",1730 ng/mL
same,half-life,"[2]; human, plasma, oral, cycle 1 day 1, 8.5",16.5 h
same,Cmax,"[2]; human, plasma, oral, cycle 1 day 1, entire sampled cohort, read-out: Mean Cmax",731 ng/mL
same,half-life,"[2]; human, plasma, oral, cycle 1 day 8, 42.6",37.7 h
same,AUC,"[2]; human, plasma, oral, entire sampled cohort, read-out: Mean AUC from 0 to 24",3160 ng·h/mL
same,Tmax,"[2]; human, plasma, oral, day 1 of cycle 1, dose-escalation cohorts 1 through 8, read-out: Peak (tmax)",0.5 to 2 h
same,Cmax,"[2]; individual patients, total dose 500 mg, twice daily dosing, read-out: Cmax",1800 ng/mL
same,Cmax,"[2]; individual patients, total dose 600 mg, twice daily dosing",638 ng·h/mL and 2100 ng·h/mL and 1280 ng·h/mL and 1220 ng·h/mL and 1710 ng·h/mL
same,Cmax,"[2]; individual patients, total dose 1000 mg, twice daily dosing",4420 ng·h/mL and 2580 ng·h/mL and 3760 ng·h/mL and 2410 ng·h/mL and 1240 ng·h/mL
same,Peripherally measured Notch target gene expression levels versus exposure/dose,[3],downregulation; also recorded: declined with increasing exposure
